Like-named read-outs stand apart in the source and are kept apart here.
Legend:
Type in all cases: cell-based
a collection of yeasts = conditions: pH 3.5
Description: Cultures were grown in GPY-broth that contained per liter demineralised-water: 40 g glucose, 5 g peptone and 5 g yeast extract, the pH of the medium to 3.5 with 2 N HCl. Cultures were grown in screw-capped tubes for at least 48 hours at 25° C. Pichia membranifaciens MUCL 27794, CBS 8427 and CBS 5567, Rhodotorula glutinis CBS 2367, Rhodotorula mucilaginosa CBS 8054 and CBS 2401 and Zygosaccharomyces bailii MUCL 27812 were cultured in shake flasks
The inhibition tests were carried out in sterile 96-well microtiter plates. Increasing amounts (0 to 100 μL in 10 steps of 10 μL) of a sterile stock solution of each compound were transferred to sterile microtiter plates. Next 100 μL of filter sterilized double strength GPY-broth was added and the volume of each well was adjusted to 200 μL with sterile demineralized-water. Plates were inoculated with 2 μL of two days old cultures and incubated for 96 hours at 25° C. Growth was quantified by measuring the optical density at 595 nm in a microplate reader. All the experiments were carried out in duplicate.

Saccharomyces cerevisiae = test: Screening of combinations of three ingredients, outgrowth in GPY-broth pH 3.5
Description: These combination tests were also carried out in sterile 96-well microtiter plates. Sterile GPY-broth was prepared with increasing quantities of inhibitors. For the first dimension the concentrations of the first inhibitor was presented in 8 equal concentration steps. For the second dimension a fixed ratio of two other inhibitors was chosen. This mixture was presented in 8 equal concentration steps resulting in 64 different media. […] of each medium was transferred to a panel of a sterile 96-well microtiter plate. Completed well plates were stored at 4° C. until further use. Plates were inoculated with 2 μL of two days old cultures and incubated for 96 hours at 25° C. Growth was quantified by measuring the optical density at 595 nm in a microplate reader and expressed as a percentage of the growth in the control, which contained no inhibitor. All the experiments were carried out in duplicate.

[1] = tested on: Schizosaccharomyces pombe; test: Screening of combinations of two inhibitors, outgrowth in GPY-broth pH 3.5
Description: These combination tests were carried out in sterile 96-well microtiter plates. Sterile GPY-broth was prepared with increasing quantities of two different inhibitors. The concentrations of each inhibitor were presented in 8 equal concentration steps that ranged from 0 to 1-2 times the MIC value of a particular yeast for a particular inhibitor resulting in 64 different media. […] of each medium was transferred to a panel of a sterile 96-well microtiter plate. Completed well plates were stored at 4° C. until further use.
Plates were inoculated with 2 μL of two days old cultures and incubated for 96 hours at 25° C. Growth was quantified by measuring the optical density at 595 nm in a microplate reader and expressed as a percentage of the growth in the control, which contained no inhibitor. All the experiments were carried out in duplicate.

C/C=C/C=C/C(=O)O [Sorbic acid]
MICavg (Average Minimal Inhibitory Concentration) (a collection of yeasts): 0.030 ± 0.020 % w/v | MICmax (Maximum MIC) (a collection of yeasts): 0.07 % w/v | MICmax/MICavg (a collection of yeasts): 2.5

O=C(O)C=Cc1ccccc1 [Cinnamic acid, cinnamic acid]
Outgrowth (% of outgrowth at zero concentration inhibitor) (Saccharomyces cerevisiae; MCE 8060-ε-polylysine mixture (ratio 18.9) 0, cinnamic acid 0.002 (% w/v)): 76% | Outgrowth (% of outgrowth at zero concentration inhibitor) (Saccharomyces cerevisiae; MCE 8060-ε-polylysine mixture (ratio 18.9) 0, cinnamic acid 0.004 (% w/v)): 44% | Outgrowth (% of outgrowth at zero concentration inhibitor) (Saccharomyces cerevisiae; MCE 8060-ε-polylysine mixture (ratio 18.9) 0, cinnamic acid 0.006 (% w/v)): 1% | Outgrowth (% of outgrowth at zero concentration inhibitor) (Saccharomyces cerevisiae; MCE 8060-ε-polylysine mixture (ratio 18.9) 0, cinnamic acid 0.008 (% w/v)): 0% | Outgrowth (% of outgrowth at zero concentration inhibitor) (Saccharomyces cerevisiae; MCE 8060-ε-polylysine mixture (ratio 18.9) 0, cinnamic acid 0.01 (% w/v)): 2% | Outgrowth (% of outgrowth at zero concentration inhibitor) (Saccharomyces cerevisiae; MCE 8060-ε-polylysine mixture (ratio 18.9) 0, cinnamic acid 0.012 (% w/v)): 1% | Outgrowth (% of outgrowth at zero concentration inhibitor) (Saccharomyces cerevisiae; MCE 8060-ε-polylysine mixture (ratio 18.9) 0, cinnamic acid 0.014 (% w/v)): 0% | Comparison of inhibitory potency (in words) (a collection of yeasts; MIC values of a number of yeasts): more effective than sorbic acid | MICavg (Average Minimal Inhibitory Concentration) (a collection of yeasts; collection of yeasts): 0.009 ± 0.007 % w/v | MICmax (Maximum MIC) (a collection of yeasts; collection of yeasts): 0.03 % w/v | MICmax/MICavg (a collection of yeasts; collection of yeasts): 3.0

C/C=C/C=C/C(=O)[O-].[K+] [Potassium sorbate, potassium sorbate]
Outgrowth (% of outgrowth at zero concentration inhibitor) ([1]; ε-polylysine 0, potassium sorbate 0.007 (% w/v)): 81% | Outgrowth (% of outgrowth at zero concentration inhibitor) ([1]; ε-polylysine 0, potassium sorbate 0.014 (% w/v)): 69% | Outgrowth (% of outgrowth at zero concentration inhibitor) ([1]; ε-polylysine 0, potassium sorbate 0.021 (% w/v)): 56% | Outgrowth (% of outgrowth at zero concentration inhibitor) ([1]; ε-polylysine 0, potassium sorbate 0.028 (% w/v)): 44% | Outgrowth (% of outgrowth at zero concentration inhibitor) ([1]; ε-polylysine 0, potassium sorbate 0.035 (% w/v)): 30% | Outgrowth (% of outgrowth at zero concentration inhibitor) ([1]; ε-polylysine 0, potassium sorbate 0.042 (% w/v)): 20% | Outgrowth (% of outgrowth at zero concentration inhibitor) ([1]; ε-polylysine 0, potassium sorbate 0.049 (% w/v)): 7%

Source: patent US20090074926A1, “Preservation of acidic beverages” (PURAC BIOCHEM B.V., priority 2007, published 2009)
